Values joined by “and” are separate entries in the source; they are usually repeats but may differ in a detail not shown here. Equal values may be shown once. Read-outs that look alike come from different tables or passages of the source.
Experiments:
[1] = tested on: Normal human HEPM fibroblasts; assay: Cell Mat Assay: density of mat cells (mIC50); assay type: cell-based
Summary of the method: (§1)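 Serial compound dilutions added 24 h after planting T24-BAG4 cells onto a mat of normal cells, then 14 d colony growth; monolayers glutaraldehyde-fixed and tumor cells X-Gal stained. tIC50 and mIC50 from microscope counts of colonies, cells per colony and mat cell density.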

[2] = tested on: Ras-CVLS processing in COS monkey kidney cells; assay: COS cell assay: Ras-CVLS processing (Western blot); assay type: cell-based; conditions: COS cells, read-out: Inhibition of Ras Processing IC50
Summary of the method: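 COS cells electroporated with Ras-CVLS (farnesyl transferase substrate) cDNA, with drug-containing fresh medium added at 24 h and cells examined at 48 h. TCA-precipitated cellular protein was resolved by SDS gel and immunoblotted with anti-p21 Ras monoclonal and HRP anti-rat IgG to monitor Ras processing.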

[3] = tested on: T24-BAG4 human bladder carcinoma cells expressing an activated H-ras gene; assay: Cell Mat Assay: tumor cell colony inhibition (tIC50); assay type: cell-based; conditions: inhibition of tumor cell growth
Summary of the method: as §1

[4] = target: T1, farnesyl protein transferase (FPT), partially purified from rat brain (Rattus norvegicus, UniProt Q02293+Q04631); assay: Inhibition of farnesyl protein transferase (transfer of [3H]farnesyl to Ras-CVLS); assay type: biochemical
T1 construct: were partially purified from rat brain by ammonium sulfate fractionation followed by Q-Sepharose
Summary of the method: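 Transfer of [3H]farnesyl onto E. coli-expressed, His6-tagged Ras-CVLS was measured after 30 min at room temperature. Radiolabelled Ras was TCA-precipitated on ice and filter-harvested, and inhibition was expressed as percent of DMSO control.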

[5] = tested on: SW620 (human colon adenocarcinoma [lymph node metastasis]); assay: In vivo anti-tumor study, SW620; parameters: species or system athymic nu/nu female mice; conditions: SW620 tumor, 100 MPK, po, 10/wk, x4; for inhibition in vivo at 100 mg/kg: Mus musculus, SW-620, po
Description: In vivo Anti-tumor Studies
Tumor bearing animals are selected and randomized when the tumors are established. […] The percent inhibition of tumor growth relative to vehicle controls are determined by tumor measurements.

[6] = target: T2, geranylgeranyl protein transferase (GGPT) I (Rattus norvegicus, UniProt P53610+Q04631); assay: Inhibition of geranylgeranyl protein transferase I (Ras-CVLL as acceptor); assay type: biochemical; conditions: enzyme inhibition
T2 construct: were partially purified from rat brain by ammonium sulfate fractionation followed by Q-Sepharose
Source text: 1. In vitro enzyme assays: Inhibition of farnesyl protein transferase and geranylgeranyl protein transferase.
Both farnesyl protein transferase (FPT) and geranylgeranyl protein transferase (GGPT) I were partially purified from rat brain by ammonium sulfate fractionation followed by Q-Sepharose (Pharmacia, Inc.) anion exchange chromatography essentially as described by Yokoyama et al (Yokoyama, K., et al., (1991), A protein geranylgeranyltransferase from bovine brain: Implications for protein prenylation specificity, Proc. Natl. Acad. Sci USA 88: 5302-5306, the disclosure of which is incorporated herein by reference thereto). Human farnesyl protein transferase was also expressed in E. coli, using cDNA clones encoding both the α and β subunits. The methods used were similar to those published (Omer, C. et al., (1993), Characterization of recombinant human farnesyl protein transferase: Cloning, expression, farnesyl diphosphate binding, and functional homology with yeast prenyl-protein transferases, Biochemistry 32:5167-5176). Human farnesyl protein transferase was partially-purified from the soluble protein fraction of E. coli as described above. […] Two forms of val^12-Ha-Ras protein were prepared as substrates for these enzymes, differing in their carboxy terminal sequence. One form terminated in cysteine-valine-leucine-serine (Ras-CVLS) the other in cystein-valine-leucine-leucine (Ras-CVLL). Ras-CVLS is a substrate for the farnesyl protein transferase while Ras-CVLL is a substrate for geranylgeranyl protein transferase I. The cDNAs encoding these proteins were constructed so that the proteins contain an amino-terminal extension of 6 histidine residues. Both proteins were expressed in Escherichia coli and purified using metal chelate affinity chromatography. The radiolabelled isoprenyl pyrophosphate substrates, [^3H]farnesyl pyrophosphate and [3H]geranylgeranyl pyrophosphate, were purchased from DuPont/New England Nuclear.
The geranylgeranyl protein transferase I assay was essentially identical to the farnesyl protein transferase assay described above, with two exceptions: [^3H]geranylgeranylpyrophosphate replaced farnesyl pyrophosphate as the isoprenoid donor and Ras-CVLL was the protein acceptor.

[7] = Ras-CVLS farnesylation, partially purified rat brain FPT, read-out: FPT IC50
[8] = enzyme inhibition, read-out: FPT IC50

T1 sequence (Q02293 whole entry, one chain of several): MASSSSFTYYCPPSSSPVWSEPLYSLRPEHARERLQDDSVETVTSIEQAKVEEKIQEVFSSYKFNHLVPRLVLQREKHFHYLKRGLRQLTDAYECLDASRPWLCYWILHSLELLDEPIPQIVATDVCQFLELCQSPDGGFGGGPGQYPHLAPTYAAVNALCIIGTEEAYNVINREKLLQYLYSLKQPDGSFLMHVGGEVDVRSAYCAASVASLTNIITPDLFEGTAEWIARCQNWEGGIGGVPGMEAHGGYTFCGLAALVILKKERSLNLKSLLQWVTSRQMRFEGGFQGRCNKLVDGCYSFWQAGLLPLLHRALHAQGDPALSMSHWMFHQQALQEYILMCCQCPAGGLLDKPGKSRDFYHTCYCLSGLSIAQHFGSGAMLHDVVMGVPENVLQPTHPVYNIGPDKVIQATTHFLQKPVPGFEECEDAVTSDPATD
T2 sequence (P53610 whole entry, one chain of several): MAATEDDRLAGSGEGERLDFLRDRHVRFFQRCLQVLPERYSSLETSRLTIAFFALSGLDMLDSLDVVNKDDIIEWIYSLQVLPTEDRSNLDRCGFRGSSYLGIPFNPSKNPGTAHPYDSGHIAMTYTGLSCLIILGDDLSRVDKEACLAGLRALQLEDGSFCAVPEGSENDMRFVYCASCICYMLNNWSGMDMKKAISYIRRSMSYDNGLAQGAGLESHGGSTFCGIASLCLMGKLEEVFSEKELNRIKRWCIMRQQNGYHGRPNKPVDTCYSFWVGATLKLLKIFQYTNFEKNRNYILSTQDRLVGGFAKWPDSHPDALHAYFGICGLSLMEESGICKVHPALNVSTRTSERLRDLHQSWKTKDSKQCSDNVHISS

Row | Compound | IC50 ([1]; Homo sapiens, Fibroblast) | IC50 ([2]; Primates, COS) | melting point | IC50 ([3]; Homo sapiens) | IC50 [4, 7] | further results
1 | O=C(Cc1ccccc1)N1CCC(=C2c3ccc(Cl)cc3CCc3cccnc32)CC1 [Example 44] | 25 µM | 11.6 µM | 112 to 114.6 °C | 25 µM | 0.8 µM | –
2 | CN1C(=O)CC[C@H](C(=O)N2CCC(=C3c4ccc(Cl)cc4CCc4cccnc43)CC2)[C@H]1c1ccc(F)cc1 [Example 4] | – | – | – | – | 1 µM and 0.8 µM | inhibition in vivo at 100 mg/kg [5]: 2%
3 | O=C(Cc1cccnc1)N1CCC(=C2c3ccc(Cl)cc3CCc3cc(Br)cnc32)CC1 [Example 247] | > 50 µM | > 3.9 µM | 92 to 93 °C | – | 0.16 µM | IC50 ([2]; listed as 247 (5.122)): 3.5 µM; IC50 [6]: > 40 µM
4 | Nc1cnc2c(c1)CCc1cc(Cl)ccc1C2=C1CCN(C(=O)Cc2ccncc2)CC1 [Example 402] | > 25 µM | > 10 µM | 133.2 to 133.4 °C | 18 µM | – | IC50 ([4]; FPT IC50, enzyme inhibition): 1 µM
5 | O=C(Cc1ccc(Br)cc1)N1CCC(=C2c3ccc(Cl)cc3CCc3cccnc32)CC1 [Example 43] | 50 µM | 9.7 µM | 93.3 to 94.6 °C | 25 µM | 0.6 µM | –
6 | O=C(Cc1ccncc1)N1CCC(C2c3ccc(Cl)cc3CCc3ccc[n+]([O-])c32)CC1 (stereo not drawn) [Example 236] | > 50 µM | 3.5 µM | 116.7 to 117.6 °C | 4 µM | 1.48 µM | IC50 [6]: > 45 µM
7 | CCC(C(=O)N1CCC(=C2c3ccc(Cl)cc3CCc3cccnc32)CC1)c1ccccc1 (stereo not drawn) [Example 48] | 25 µM | 10.7 µM | 82.7 to 83.8 °C | 12.5 µM | 1.3 µM | –
8 | O=C(Cc1cccnc1)N1CCC(=C2c3ccc(Cl)cc3CCc3c(On4nnc5ccccc54)ccnc32)CC1 [Example 251] | – | 8.1 µM | 120 to 122 °C | – | 0.76 µM | –
9 | CN1C(=O)C(CCC(=O)N2CCC(=C3c4ccc(Cl)cc4CCc4cccnc43)CC2)NC1=S (stereo not drawn) [Example 23] | – | – | 205 to 207 °C | – | 6 µM | –
10 | O=C(Cc1cccnc1)N1CCC(C2c3ccc(Cl)cc3CCc3ccc[n+]([O-])c32)CC1 (stereo not drawn) [Example 235] | > 50 µM | 9.1 µM | 61.8 to 62.3 °C | 12.5 µM | 3.57 µM | –
11 | O=C(O)c1ccc2c(c1)CCc1cccnc1C2=C1CCN(C(=O)Cc2ccncc2)CC1 [Example 435] | – | – | 238 to 240 °C | – | – | IC50 [4, 8]: 7 µM
12 | O=C(NCc1ccccc1)c1ccc2c(c1)CCc1cccnc1C2=C1CCN(C(=O)Cc2ccncc2)CC1 [Example 436] | – | – | 118 to 120 °C | – | 17 µM | –
13 | O=C(C(=O)N1CCC(=C2c3ccc(Cl)cc3CCc3cccnc32)CC1)c1c[nH]c2ccccc12 [Example 219] | – | – | 192 to 193 °C | – | 6.64 µM | –
14 | O=C(Cc1ccccn1)N1CCC(=C2c3ccc(Cl)cc3CCc3cccnc32)CC1 [Example 6] | 50 µM | 10 µM | 122 to 125 °C | 12.5 µM | 2 µM | –
15 | O=C(Cc1cccnc1)N1CCC(C2c3ccc(Cl)cc3CCc3cccnc32)CC1 (stereo not drawn) [Example 82A, 4-(8-Chloro-6,11-dihydro-5H-benzo-[5,6]cyclohepta(1,2-b]pyridin-11-yl)-1-[(3-pyridinyl)acetyl]-piperidine] | – | – | 81.7 to 82 °C | – | – | inhibition in vivo at 100 mg/kg [5]: 27%
16 | O=C(Cc1ccccc1[N+](=O)[O-])C(=O)N1CCC(=C2c3ccc(Cl)cc3CCc3cccnc32)CC1 [Example 220] | – | – | 282 to 285 °C | – | 2.49 µM | –
17 | O=C(Cc1cccnc1)N1CCC(=C2c3ccc(Cl)cc3CCc3c(Cl)ccnc32)CC1 [Example 250] | > 50 µM | 8.6 µM | 59.8 to 63.5 °C | 18 µM | 0.95 µM | –

Row | Compound | IC50 ([1]; Homo sapiens, Fibroblast) | IC50 ([2]; Primates, COS) | melting point | IC50 ([3]; Homo sapiens) | IC50 [4, 7] | further results
18 | O=C(Cc1ccncc1)N1CCC(=C2c3ccc(Cl)cc3CCc3cc(Br)c(O)nc32)CC1 [Example 415] | – | – | 150 °C (dec.) | – | – | IC50 [4, 8]: > 3.8 µM
19 | O=C(c1ccncc1)N1CCC(=C2c3ccc(Cl)cc3CCc3cccnc32)CC1 [Example 15] | – | – | 176 to 178 °C | – | 4.7 µM | –
20 | O=C(Nc1ccncc1)N1CCC(=C2c3ccc(Cl)cc3CCc3cc(Cl)ccc32)CC1 [Example 423] | – | – | 206.4 to 207 °C | – | – | FPT inhibition at the concentration in parentheses ([4]; (4.3) μM): 35 (4.3); IC50 [4, 8]: > 4.3 µM
21 | O=C(C(c1ccccc1)c1ccccc1)N1CCC(=C2c3ccc(Cl)cc3CCc3cccnc32)CC1 [Example 42] | > 50 µM | 5.8 µM | 114.2 to 115.8 °C | 50 µM | 0.6 µM | –
22 | CC(=O)N1CCC(C(=O)N2CCN(C3c4ccc(Cl)cc4CCc4cccnc43)CC2)CC1 (stereo not drawn) [Example 192] | > 50 µM | 4.9 µM | – | 25 µM | 1.24 µM | inhibition in vivo at 100 mg/kg [5]: 29%; IC50 [6]: > 43 µM; IC50 ([3]; listed as 192 (5.65)): 37 µM
23 | CCc1cc2c(cc1Cl)C=Cc1cccnc1C2C1CCN(C(=O)Cc2cccnc2)CC1 (stereo not drawn) [Example 270] | – | – | 67.2 to 69.8 °C | – | 2.8 µM | –
24 | O=C(Cc1cc[n+]([O-])cc1)N1CCC(C2c3ccc(Cl)cc3CCc3ccc[n+]([O-])c32)CC1 (stereo not drawn) [Example 238] | > 50 µM | – | 85 to 85.6 °C | > 50 µM | – | inhibition at 4 µM ([4]; at 4 μM): 26%
25 | O=C(Cc1ccncc1)N1CCC(=C2c3ccc(Cl)cc3CCc3c(On4nnc5ccccc54)ccnc32)CC1 [Example 249] | – | – | 98.6 to 101.6 °C | – | 0.64 µM | –
26 | O=C1CCC(C(=O)N2CCC(=C3c4ccc(Cl)cc4CCc4cccnc43)CC2)=NN1 [Example 35] | – | – | 190 to 193 °C | – | 9.9 µM | –
27 | CN1CCC(CC(=O)N2CCC(=C3c4ccc(Cl)cc4CCc4c3ncc(Br)c4Cl)CC2)CC1 [Example 413] | 10 µM | 1.5 µM | 105 °C (dec.) | > 6.25 µM | – | IC50 [6]: > 35 µM; IC50 [4, 8]: 0.103 µM
28 | O=C(c1cc[n+]([O-])cc1)N1CCC(=C2c3ccc(Cl)cc3CCc3cccnc32)CC1 [Example 22] | – | – | 228 °C (dec.) | – | 6 µM | –
29 | CC(C)(C)OC(=O)NCCSc1ccnc2c1CCc1cc(Cl)ccc1C2=C1CCN(C(=O)Cc2cccnc2)CC1 [Example 260] | – | – | 59.8 to 63.5 °C | – | 9.9 µM | –
30 | O=C(Nc1ccccn1)N1CCN(C2c3ccc(Cl)cc3CCc3cccnc32)CC1 (stereo not drawn) [187 (6.8)] | – | – | – | – | 0.95 µM | IC50 [1]: > 50 µM and 50 µM; IC50 [2]: 1.3 µM; Average % Tumor Inhibition ([5]; listed as Ex. 187 (6.8), 100 mg/kg): 11% and 21%; IC50 [6]: > 46 µM
31 | O=C(Cc1ccc[n+]([O-])c1)N1CCC(=C2c3ccc(Cl)cc3CCc3ccc[n+]([O-])c32)CC1 [Example 231] | – | – | 105 to 107 °C | – | – | inhibition at 12 µM ([4]; at 12 μM): 44%
32 | Cn1cc(Br)c(=O)c2c1C(=C1CCN(C(=O)Cc3ccncc3)CC1)c1ccc(Cl)cc1CC2 [Example 416] | – | – | 142 °C (dec.) | – | 3.7 µM | –
33 | O=C1CCC(C(=O)N2CCC(=C3c4ccc(Cl)cc4CCc4cccnc43)CC2)CC1 [Example 5] | > 50 µM | 9.2 µM | 200 °C | – | 1.7 µM | IC50 [1]: 100 µM; IC50 [2]: > 12 µM; IC50 [6]: > 46 µM; IC50 [4, 8]: 1.7 µM

Reference: patent publication US20030055065A1, “Tricyclic amide and urea compounds useful for inhibition of G-protein function and for treatment of proliferative diseases” (priority 1993, published 2003)
